{"source": "patent US20240033272A1", "about": "“USE OF C[…] THE TREATMENT OF SEIZURES ASSOCIATED WITH HERPES SIMPLEX VIRUS” (GW Research Limited, priority 2020, published 2024)", "test_system": "patients diagnosed with herpes simplex virus (seizures associated with herpes simplex virus)", "assay": "Open label, expanded-access program: seizure frequency recorded by caregivers in a diary, change relative to baseline", "type": "in vivo, human", "design": "Reduction in myoclonic seizures over the treatment period / Reduction in absence seizures over the treatment period / Reduction in focal seizures with impairment over the treatment period / Reduction in tonic-clonic seizures over the treatment period / Reduction in atonic seizures over the treatment period / Reduction in tonic seizures over the treatment period: concentration or dose not given beside the values; Seizure frequency, tonic-clonic / Seizure frequency, myoclonic / Seizure frequency, absence / Seizure frequency, focal with impairment / Seizure frequency, tonic / Seizure frequency, focal without impairment / Seizure frequency, atonic: unit not given here", "details": "for Seizure frequency, focal with impairment: baseline 14.0; for Seizure frequency, absence: baseline 28.0; for Seizure frequency, myoclonic: baseline 59.0; for Seizure frequency, tonic: baseline 24.0", "procedure": "Subjects were required to be on one or more AEDs at stable doses for a minimum of two weeks prior to baseline and to have stable vagus nerve stimulation (VNS) settings and ketogenic diet ratios for a minimum of four weeks prior to baseline.\nModifications were made to concomitant AEDs as per clinical indication.\nSeizure frequency, intensity, and duration were recorded by caregivers in a diary during a baseline period of at least 28 days. Changes in seizure frequency relative to baseline were calculated after at least 2 weeks and at defined timepoints of treatment.\nPatients may be defined as responders if they had more than 50% reduction in seizure frequency compared to baseline. The percent change in seizure frequency was calculated as follows: […]\nThe percent change of seizure frequency may be calculated for any time interval where seizure number has been recorded. For the purpose of this example the percent change of seizure frequency for the end of the treatment period was calculated as follows: […]", "key": {"[1]": {"details": "Patient 4, treated for 24 weeks, vs baseline"}, "[2]": {"details": "Patient 5, 4 weeks, CBD 20.0 mg/kg/day"}, "[3]": {"details": "Patient 5, 8 weeks, CBD 25.0 mg/kg/day"}, "[4]": {"details": "Patient 5, 12 weeks, CBD 25.0 mg/kg/day"}, "[5]": {"details": "Patient 5, 16 weeks, CBD 25.0 mg/kg/day"}, "[6]": {"details": "Patient 5, 24 weeks, CBD 30.0 mg/kg/day"}, "[7]": {"details": "Patient 5, 36 weeks, CBD 40.0 mg/kg/day"}, "[8]": {"details": "Patient 5, 60 weeks, CBD 50.0 mg/kg/day"}, "[9]": {"details": "Patient 5, 72 weeks, CBD 50.0 mg/kg/day"}, "[10]": {"details": "Patient 5, 84 weeks, CBD 30.0 mg/kg/day"}, "[11]": {"details": "Patient 5, 96 weeks, CBD 45.0 mg/kg/day"}, "[12]": {"details": "Patient 5, 108 weeks, CBD 45.0 mg/kg/day"}, "[13]": {"details": "Patient 5, 120 weeks, CBD 45.0 mg/kg/day"}, "[14]": {"details": "Patient 5, 132 weeks, CBD 45.0 mg/kg/day"}, "[15]": {"details": "Patient 5, 144 weeks, CBD 45.0 mg/kg/day"}, "[16]": {"details": "Patient 5, treated for 144 weeks, vs baseline"}}, "note": "Entries after “also recorded” stand apart in the source; their conditions may differ."}
{"compound": "C=C(C)[C@@H]1CCC(C)=C[C@H]1c1c(O)cc(CCCCC)cc1O", "note": "[CBD, cannabidiol]", "values": [{"measurement": "Seizure frequency, tonic-clonic", "setting": "Patient 4, 16 weeks, CBD 15.0 mg/kg/day, baseline 10.0", "result": 0.7}, {"measurement": "Seizure frequency, focal with impairment", "setting": "Patient 4, 16 weeks, CBD 15.0 mg/kg/day", "result": 2.7}, {"measurement": "Seizure frequency, atonic", "setting": "Patient 4, 16 weeks, CBD 15.0 mg/kg/day, baseline 20.0", "result": 14.0}, {"measurement": "Seizure frequency, tonic-clonic", "setting": "Patient 4, 24 weeks, CBD 15.0 mg/kg/day, baseline 10.0", "result": 10.0}, {"measurement": "Seizure frequency, focal with impairment", "setting": "Patient 4, 24 weeks, CBD 15.0 mg/kg/day", "result": 3.0}, {"measurement": "Seizure frequency, atonic", "setting": "Patient 4, 24 weeks, CBD 15.0 mg/kg/day, baseline 20.0", "result": 13.0}, {"measurement": "Reduction in atonic seizures over the treatment period", "setting": "[1]", "result": 35, "unit": "%"}, {"measurement": "Reduction in focal seizures with impairment over the treatment period", "setting": "[1]", "result": 78.6, "unit": "%"}, {"measurement": "Seizure frequency, absence", "setting": "[2]", "result": 45.0}, {"measurement": "Seizure frequency, myoclonic", "setting": "[2]", "result": 75.0}, {"measurement": "Seizure frequency, tonic-clonic", "setting": "Patient 5, 4 weeks, CBD 20.0 mg/kg/day, baseline 71.0", "result": 75.0}, {"measurement": "Seizure frequency, atonic", "setting": "Patient 5, 4 weeks, CBD 20.0 mg/kg/day, baseline 748.0", "result": 965.0}, {"measurement": "Seizure frequency, absence", "setting": "[3]", "result": 0.0}, {"measurement": "Seizure frequency, myoclonic", "setting": "[3]", "result": 60.0}, {"measurement": "Seizure frequency, tonic-clonic", "setting": "Patient 5, 8 weeks, CBD 25.0 mg/kg/day, baseline 71.0", "result": 7.0}, {"measurement": "Seizure frequency, atonic", "setting": "Patient 5, 8 weeks, CBD 25.0 mg/kg/day, baseline 748.0", "result": 8.0}, {"measurement": "Seizure frequency, absence", "setting": "[4]", "result": 0.0}, {"measurement": "Seizure frequency, myoclonic", "setting": "[4]", "result": 1.0}, {"measurement": "Seizure frequency, tonic-clonic", "setting": "Patient 5, 12 weeks, CBD 25.0 mg/kg/day, baseline 71.0", "result": 4.0}, {"measurement": "Seizure frequency, atonic", "setting": "Patient 5, 12 weeks, CBD 25.0 mg/kg/day, baseline 748.0", "result": 25.0}, {"measurement": "Seizure frequency, absence", "setting": "[5]", "result": 0.0}, {"measurement": "Seizure frequency, myoclonic", "setting": "[5]", "result": 0.0}, {"measurement": "Seizure frequency, tonic-clonic", "setting": "Patient 5, 16 weeks, CBD 25.0 mg/kg/day, baseline 71.0", "result": 10.0}, {"measurement": "Seizure frequency, atonic", "setting": "Patient 5, 16 weeks, CBD 25.0 mg/kg/day, baseline 748.0", "result": 53.0}, {"measurement": "Seizure frequency, absence", "setting": "[6]", "result": 0.0}, {"measurement": "Seizure frequency, myoclonic", "setting": "[6]", "result": 68.0}, {"measurement": "Seizure frequency, tonic-clonic", "setting": "Patient 5, 24 weeks, CBD 30.0 mg/kg/day, baseline 71.0", "result": 40.0}, {"measurement": "Seizure frequency, absence", "setting": "[7]", "result": 0.0}, {"measurement": "Seizure frequency, myoclonic", "setting": "[7]", "result": 129.0}, {"measurement": "Seizure frequency, tonic-clonic", "setting": "Patient 5, 36 weeks, CBD 40.0 mg/kg/day, baseline 71.0", "result": 76.0}, {"measurement": "Seizure frequency, atonic", "setting": "Patient 5, 36 weeks, CBD 40.0 mg/kg/day, baseline 748.0", "result": 44.0}, {"measurement": "Seizure frequency, absence", "setting": "[8]", "result": 0.0}, {"measurement": "Seizure frequency, myoclonic", "setting": "[8]", "result": 184.0}, {"measurement": "Seizure frequency, tonic-clonic", "setting": "Patient 5, 60 weeks, CBD 50.0 mg/kg/day, baseline 71.0", "result": 137.0}, {"measurement": "Seizure frequency, atonic", "setting": "Patient 5, 60 weeks, CBD 50.0 mg/kg/day, baseline 748.0", "result": 45.0}, {"measurement": "Seizure frequency, absence", "setting": "[9]", "result": 3.0}, {"measurement": "Seizure frequency, myoclonic", "setting": "[9]", "result": 141.0}, {"measurement": "Seizure frequency, tonic-clonic", "setting": "Patient 5, 72 weeks, CBD 50.0 mg/kg/day, baseline 71.0", "result": 130.0}, {"measurement": "Seizure frequency, atonic", "setting": "Patient 5, 72 weeks, CBD 50.0 mg/kg/day, baseline 748.0", "result": 46.3}, {"measurement": "Seizure frequency, absence", "setting": "[10]", "result": 5.7}, {"measurement": "Seizure frequency, myoclonic", "setting": "[10]", "result": 81.0}, {"measurement": "Seizure frequency, tonic-clonic", "setting": "Patient 5, 84 weeks, CBD 30.0 mg/kg/day, baseline 71.0", "result": 77.0}, {"measurement": "Seizure frequency, atonic", "setting": "Patient 5, 84 weeks, CBD 30.0 mg/kg/day, baseline 748.0", "result": 39.3}, {"measurement": "Seizure frequency, absence", "setting": "[11]", "result": 8.0}, {"measurement": "Seizure frequency, myoclonic", "setting": "[11]", "result": 41.0}, {"measurement": "Seizure frequency, tonic-clonic", "setting": "Patient 5, 96 weeks, CBD 45.0 mg/kg/day, baseline 71.0", "result": 72.0}, {"measurement": "Seizure frequency, atonic", "setting": "Patient 5, 96 weeks, CBD 45.0 mg/kg/day, baseline 748.0", "result": 97.0}, {"measurement": "Seizure frequency, absence", "setting": "[12]", "result": 11.0}, {"measurement": "Seizure frequency, myoclonic", "setting": "[12]", "result": 64.0}, {"measurement": "Seizure frequency, tonic-clonic", "setting": "Patient 5, 108 weeks, CBD 45.0 mg/kg/day, baseline 71.0", "result": 53.0}, {"measurement": "Seizure frequency, atonic", "setting": "Patient 5, 108 weeks, CBD 45.0 mg/kg/day, baseline 748.0", "result": 92.0}, {"measurement": "Seizure frequency, absence", "setting": "[13]", "result": 11.3}, {"measurement": "Seizure frequency, myoclonic", "setting": "[13]", "result": 53.0}, {"measurement": "Seizure frequency, tonic-clonic", "setting": "Patient 5, 120 weeks, CBD 45.0 mg/kg/day, baseline 71.0", "result": 44.3}, {"measurement": "Seizure frequency, atonic", "setting": "Patient 5, 120 weeks, CBD 45.0 mg/kg/day, baseline 748.0", "result": 72.3}, {"measurement": "Seizure frequency, absence", "setting": "[14]", "result": 18.8}, {"measurement": "Seizure frequency, myoclonic", "setting": "[14]", "result": 66.4}, {"measurement": "Seizure frequency, tonic-clonic", "setting": "Patient 5, 132 weeks, CBD 45.0 mg/kg/day, baseline 71.0", "result": 40.4}, {"measurement": "Seizure frequency, atonic", "setting": "Patient 5, 132 weeks, CBD 45.0 mg/kg/day, baseline 748.0", "result": 128.0}, {"measurement": "Seizure frequency, absence", "setting": "[15]", "result": 49.6}, {"measurement": "Seizure frequency, myoclonic", "setting": "[15]", "result": 78.0}, {"measurement": "Seizure frequency, tonic-clonic", "setting": "Patient 5, 144 weeks, CBD 45.0 mg/kg/day, baseline 71.0", "result": 18.0}, {"measurement": "Seizure frequency, atonic", "setting": "Patient 5, 144 weeks, CBD 45.0 mg/kg/day, baseline 748.0", "result": 78.4}, {"measurement": "Reduction in atonic seizures over the treatment period", "setting": "[16]", "result": 89.5, "unit": "%"}, {"measurement": "Reduction in tonic-clonic seizures over the treatment period", "setting": "[16]", "result": 76.4, "unit": "%"}, {"measurement": "Seizure frequency, tonic", "setting": "Patient 6, 2 weeks, CBD 5.0 mg/kg/day", "result": 40.0}, {"measurement": "Seizure frequency, tonic", "setting": "Patient 6, 4 weeks, CBD 10.0 mg/kg/day", "result": 20.0}, {"measurement": "Seizure frequency, tonic", "setting": "Patient 6, 8 weeks, CBD 20.0 mg/kg/day", "result": 32.0}, {"measurement": "Seizure frequency, tonic", "setting": "Patient 6, 12 weeks, CBD 25.0 mg/kg/day", "result": 12.0}, {"measurement": "Seizure frequency, tonic", "setting": "Patient 6, 24 weeks, CBD 25.0 mg/kg/day", "result": 15.2}, {"measurement": "Seizure frequency, tonic", "setting": "Patient 6, 36 weeks, CBD 25.0 mg/kg/day", "result": 15.2}, {"measurement": "Seizure frequency, tonic", "setting": "Patient 6, 48 weeks, CBD 25.0 mg/kg/day", "result": 18.0}, {"measurement": "Seizure frequency, tonic", "setting": "Patient 6, 60 weeks, CBD 25.0 mg/kg/day", "result": 19.2}, {"measurement": "Reduction in tonic seizures over the treatment period", "setting": "Patient 6, treated for 60 weeks, vs baseline", "result": 20, "unit": "%"}, {"measurement": "Reductions in seizures over period of treatment, overall", "setting": "all six patients, tonic, tonic-clonic, atonic, myoclonic, absence and focal seizures with impairment", "result": "20-100%"}, {"measurement": "Benefit in patients with focal seizures with impairment (in words)", "setting": "patients 1 and 4", "result": "significant benefit"}, {"measurement": "Effect on seizure frequency (in words)", "setting": "six patients, tonic, tonic-clonic, atonic, myoclonic, absence and focal seizures with impairment", "result": "effective in reducing the frequency; also recorded: significantly reduce the number of seizures; also recorded: significant reduction"}]}
